Measurements taken from PubChem BioAssay (NCI).
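All cell lines were grown in 96-well plates and treated with compound for 48 hours. GI50 is the concentration that inhibits growth by half. TGI: total growth inhibition.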

How the values were obtained:
Assay in all cases: growth of human tumour cells (NCI), 48 h
OVCAR-5 ovarian = system: OVCAR-5 ovarian
OVCAR-3 ovarian = system: OVCAR-3 ovarian
KM12 colon = system: KM12 colon
NCI-H522 lung = system: NCI-H522 lung
RPMI-8226 leukemia = system: RPMI-8226 leukemia
HT29 colon = system: HT29 colon
A549 NSCLC = system: A549 NSCLC
HL-60(TB) leukemia = system: HL-60(TB) leukemia
DU-145 prostate = system: DU-145 prostate

| Structure (SMILES) | TGI (OVCAR-5 ovarian) [µM] | TGI (OVCAR-3 ovarian) [µM] | TGI (KM12 colon) [µM] | TGI (NCI-H522 lung) [µM] | TGI (RPMI-8226 leukemia) [µM] | TGI (HT29 colon) [µM] | TGI (A549 NSCLC) [µM] | TGI (HL-60(TB) leukemia) [µM] | GI50 (OVCAR-5 ovarian) [µM] | GI50 (OVCAR-3 ovarian) [µM] | GI50 (KM12 colon) [µM] | GI50 (NCI-H522 lung) [µM] | GI50 (DU-145 prostate) [µM] | TGI (DU-145 prostate) [µM] | GI50 (RPMI-8226 leukemia) [µM] | GI50 (HL-60(TB) leukemia) [µM] | GI50 (HT29 colon) [µM] | GI50 (A549 NSCLC) [µM] |
| --- | --- | --- | --- | --- | --- | --- | --- | --- | --- | --- | --- | --- | --- | --- | --- | --- | --- | --- |
| O=C1c2c(c3c4ccccc4[nH]c3c3[nH]c4ccccc4c23)C(=O)N1Cc1ccccc1 | 7.61 | 8.16 | 9.47 | 4.72 | 6.74 | 14.5 | 13.5 |  |  |  |  |  |  |  |  |  |  |  |
| Cc1cc(NS(=O)(=O)c2ccc(Nc3c4ccccc4nc4c(C(=O)Nc5ccc(S(=O)(=O)N=C(N)N)cc5)ccc(Cl)c34)cc2)no1 | > 100 | 63.2 | > 100 | 33.2 | > 100 | > 100 | > 100 | 68.8 |  |  |  |  |  |  |  |  |  |  |
| CSc1nc(N)c2c(n1)NC(c1ccccc1)C1CCc3ccccc3C1=N2 (configuration not stated) | > 100 | > 100 | > 100 | 8.84 | > 100 | > 100 | > 100 | > 100 | > 100 | 6.85 | 6.52 | 2.59 | > 100 | > 100 | 5.72 | 4 | 7.63 | > 100 |
| COc1cc2c(cc1OC)[C@@H]([C@H](O)c1ccccc1)NCC2 | > 100 | > 100 | > 100 | > 100 | > 100 | > 100 | > 100 | > 100 |  |  |  |  |  |  |  |  |  |  |
| CCN(CC)CCC(=O)/C=C/c1ccc(C)cc1 | 32.6 | 31.1 | 7.98 |  | > 100 | 33 | 34.5 | 33.6 |  |  |  |  |  |  |  |  |  |  |
| Cc1cc(NS(=O)(=O)c2ccc(NC(=O)COC(=O)c3cccc4c(=O)c5ccccc5[nH]c34)cc2)no1 | > 100 | > 100 | > 100 | > 100 | > 100 | > 100 | > 100 | > 100 |  |  |  |  |  |  |  |  |  |  |
| CC12CC(Sc3ccccc3N1)c1ccccc1O2 (configuration not stated) | 33.3 | 30.3 | 28.6 |  | 48 | 35 | 41.9 | 28.8 |  |  |  |  |  |  |  |  |  |  |
| Cc1ccc2c(CC(=O)O)cc(=O)oc2c1 | > 100 | > 100 | > 100 | > 100 | > 100 | > 100 | > 100 | > 100 |  |  |  |  |  |  |  |  |  |  |
| COC(=O)C(=O)C(CC(=O)Nc1cccc(C(F)(F)F)c1)C(=O)OC (configuration not stated) | > 100 |  |  | > 100 | > 100 |  | > 100 | > 100 |  |  |  |  |  |  |  |  |  |  |
| COc1cc2ccc(CC(N)=O)cc2cc1OC | > 100 | > 100 | > 100 | > 100 | > 100 | > 100 | > 100 |  |  |  |  |  |  |  |  |  |  |  |
| CCOP(=O)(CC(=O)C1=C(O)C(CCCCNC(=O)OC(C)(C)C)N(Cc2ccccc2)C1=O)OCC (configuration not stated) | > 100 | > 100 | > 100 | > 100 | > 100 | > 100 | > 100 | > 100 |  |  |  |  |  |  |  |  |  |  |
| Clc1ccc(C2=NOC3C4CCC(C4)C23)cc1 (configuration not stated) | > 100 | > 100 | > 100 | > 100 | > 100 | > 100 | > 100 | > 100 |  |  |  |  |  |  |  |  |  |  |
| Brc1ccc(C2SCc3nc4ccccc4n32)cc1 (configuration not stated) | 25.2 | 17 | 21.1 | 12.4 | 28.6 | 20.9 | > 100 | 12.4 |  |  |  |  |  |  |  |  |  |  |
| CC(C)(C)N=CN(C=C(c1ccccc1)c1ccccc1)C1CCCCC1 | > 100 | > 100 | > 100 |  |  | > 100 | > 100 |  |  |  |  |  |  |  |  |  |  |  |
| Cc1cnc(SCCN2CCN(C)CC2)nc1-c1cc2ccccc2s1 |  | 24.6 | 32.2 | 29.6 |  | 18.7 | 16 |  |  |  |  |  |  |  |  |  |  |  |
| O=C1CCC2(c3ccccc3)Nc3ccc(Cl)cc3N12 (configuration not stated) | > 100 | > 100 | > 100 | > 100 | > 100 | > 100 | > 100 | > 100 |  |  |  |  |  |  |  |  |  |  |
| CCCCCCCCCCCCCCNCC(OCC)OCC | 28.6 | 33.7 | 22.2 | 19.9 |  | 11.4 | 37.6 | 11.5 |  |  |  |  |  |  |  |  |  |  |
| C/C=C1\CCC2c3[nH]c4ccccc4c3CCN2C1 (configuration not stated) |  | > 100 | > 100 | > 100 |  | > 100 | > 100 | > 100 |  |  |  |  |  |  |  |  |  |  |
| CCCCN1CCN(c2ccc3nc(-c4ccc5nc(-c6ccc(OCC)c(OCC)c6)[nH]c5c4)[nH]c3c2)CC1 | 3.4 | 0.85 | 2.99 | 3.97 | 2.06 | 2.97 |  | 3.18 | 1.9 | 0.358 | 1.42 | 1.2 | 1 | 2.21 | 0.436 | 0.704 | 0.802 |  |
| O=C(NC(=O)c1cc2cc(Br)cc(Br)c2oc1=O)Oc1ccccc1 | > 100 | > 100 | > 100 |  | > 100 | > 100 | > 100 |  |  |  |  |  |  |  |  |  |  |  |
| CC/C(CC(=O)CCC(=O)Nc1ccc(C)c(C)c1)=N\NC(=O)C(N)=O | > 100 | > 100 |  | > 100 | > 100 | > 100 | > 100 | > 100 |  |  |  |  |  |  |  |  |  |  |
